Assays:
[1] = test system: Staphylococcus aureus Rosenbach; conditions: cited from earlier work
[2] = test system: Bacillus subtilis (Ehrenberg) Cohn; conditions: cited from earlier work
silkworm larvae, B. mori = conditions: concentrations in the diet up to 300 μg/g; cited from earlier work
[3] = test system: Hs578T invasive breast tumor cells; assay: Membrane Invasion Culture System (MICS) chamber tumor cell migration; assay type: cell-based, human; conditions: 5 or 10 μl/10 ml Formula I(n), 24 hours, vs untreated and methanol controls
[4] = test system: MDA-MB231 invasive breast tumor cells; assay: as above; assay type: cell-based, human; conditions: 5 or 10 μl/10 ml Formula I(n), 24 hours, vs untreated and methanol controls
Procedure: FIG. 1A is graph of cell migration using the breast cancer cell line MDA-MB231 for cells treated with 0 μl/10 ml, 5 μl/10 ml and 10 μl/10 ml Formula I(n). The effect of Formula I(n) on the migration of MDA-MB231 invasive breast tumor cells was tested using the Membrane Invasion Culture System (MICS) chamber. The Membrane Invasion Culture System (MICS) chamber was assembled with Crosstex 10 μm polycarbonate membrane pre-soaked in gelatin for 12 hours. The lower wells were fully loaded with DMEM supplemented with 10% FBS and 0, 5, 10 μl/10 ml Formula I(n) diluted in 0-20 μl/10 ml methanol. The upper wells were loaded with 1 ml serum-free phenol-red-free media and corresponding Formula I(n)/methanol solution. 100,000 cells/well were loaded and the chamber was incubated at 37° C. for 24 hours. […] The membrane was rinsed in water, placed onto a microscope slide pre-treated with immersion oil, covered with a coverslip and cells were counted under a light microscope. Each sample was measured in triplicate. […]
The Membrane Invasion Culture System (MICS) chamber was assembled with Crosstex 10 μm polycarbonate membrane pre-soaked in gelatin for 12 hours. […] The membrane was rinsed in water, placed onto a microscope slide pre-treated with immersion oil, covered with a coverslip and cells were counted under a light microscope. Each sample was measured in triplicate.

[5] = test system: focal adhesion kinase (FAK) [Tyr576] phosphorylation; assay: western blot of FAK[Tyr576] phosphorylation in Hs578T cells; assay type: cell-based, human; conditions: 5 or 10 μl Formula I(n)/10 ml media, 3 days
Excerpt: FIG. 5 is a western blot showing the inhibition of the phosphorylation of focal adhesion kinase (FAK) in Hs578T cells treated with Formula I(n). Antibodies that detect the FAK protein that has been phosphorylated on pTyr576 were used at a dilution of 1:1000 (rabbit anti-FAK[pTyr576] from Biosource Inc., Camarillo, Calif., USA).
It has previously been shown that reduced migratory ability of various invasive breast tumor cells, including MDA-MB231, Hs578T (Payne S L, Fogelgren B, Hess A R, Seftor E A, Fong S F T, Csiszar K, Hendrix M J C, and Kirschmann D A. Lysyl oxidase regulates breast cancer cell migration and adhesion through a hydrogen peroxide-mediated mechanism. Cancer Res. 65:11429-36, 2005), and astrocytoma cells (Laczko R, Szauter K M, Jansen M K, Hollosi P, Muranyi M, Molnar J, Fong K S K, Hinek A, Csiszar K. Active lysyl oxidase (LOX) correlates with FAK/paxillin activation and migration in invasive astrocytes. Neuropathol Appl Neurobiol. 33:631-43, 2007) was due to reduced activation of Focal Adhesion Kinase (FAK) and diminished SRC and/or Paxillin signaling. In order to determine the status of FAK activation in Formula I(n) treated cells, the phosphorylation status of FAK[Tyr576] in Hs578T cells treated with 5 and 10 μl Formula I(n) was analyzed.
In these experiments, Hs578T cells were cultured in standard DMEM, 1× Antibiotics and 10% FBS. […]

[6] = test system: foreskin fibroblasts (Clonetics); assay: in vitro scratch assay, fibroblast migration; assay type: cell-based
Procedure: FIG. 2A is a micrograph of an in vitro scratch assay using fibroblasts showing the migration of fibroblasts at 0 hours without treatment of Formula I(n). Confluent cultures of foreskin fibroblasts (Clonetics) were scratched with the tip of a 200 μl pipet tip, rinsed once with PBS and media was changed to serum free media containing 0 μl/10 ml Formula I(n). Pictures were taken at the indicated time (0, 12, or 24 hours) following scratching and the distance between the migrating lips were measured in pixels. FIG. 2B is a micrograph of an in vitro scratch assay using fibroblasts showing the migration of fibroblasts at 0 hours upon treatment with 5 μl/10 ml Formula I(n). […]
FIG. 3 is a graph of the distance between the migrating lips (as measured in pixels) vs. the time (hours) after administration of Formula I(n). […]
Confluent cultures of foreskin fibroblasts (Clonetics) were scratched with the tip of a 200 μl pipet tip, rinsed once with PBS and media was changed to serum free media containing 0 (FIG. 2A, 2D, 2G) 5 (FIG. 2B, 2E, 2H) or 10 (FIG. 2C, 2F) μl/10 ml Formula I(n). Pictures were taken at 0 (FIG. 2A, 2B, 2C), 12 (FIG. 2D, 2E, 2F) or 24 (FIG. 2G, 2H) hours following scratching and the distance between the migrating lips were measured in pixels. FIG. 3 is a graph of the distance between the migrating lips (as measured in pixels) vs. the time (hours) after administration of Formula I(n).

[7] = test system: preconfluent neonatal foreskin fibroblast cells; assay: cytoskeletal reorganization, phalloidin/propidium iodide staining; assay type: cell-based; conditions: pre-confluent fibroblasts; 5 or 10 μl Formula I(n); 24 hours; compared to controls
Procedure: (§1) FIG. 4A is a micrograph of preconfluent neonatal foreskin fibroblast cells that have not been treated with Formula I(n). After 24 hours of mock treatment, cells were stained with phalloidin (actin-green) and propidium iodide (nuclei-red). FIG. 4B is a micrograph of preconfluent neonatal foreskin fibroblast cells that have been treated with 5 μl/10 ml Formula I(n). After 24 hours of treatment, cells were stained with phalloidin (actin-green) and propidium iodide (nuclei-red). FIG. 4C is a micrograph of preconfluent neonatal foreskin fibroblast cells that have been treated with 10 μl/10 ml Formula I(n). After 24 hours of treatment, cells were stained with phalloidin (actin-green) and propidium iodide (nuclei-red). FIG. 4D is a micrograph of confluent MDA-MB231 breast cancer cells that have not been treated with Formula I(n). After 24 hours of mock treatment, cells were stained with phalloidin (actin-green) and propidium iodide (nuclei-red). FIG. 4E is a micrograph of confluent MDA-MB231 breast cancer cells that have been treated with 5 μl/10 ml Formula I(n). After 24 hours of treatment, cells were stained with phalloidin (actin-green) and propidium iodide (nuclei-red). FIG. 4F is a micrograph of confluent MDA-MB231 breast cancer cells that have been treated with 10 μl/10 ml Formula I(n). After 24 hours of treatment, cells were stained with phalloidin (actin-green) and propidium iodide (nuclei-red). FIG. 4G is a micrograph of preconfluent MDA-MB231 breast cancer cells that have not been treated with Formula I(n). After 24 hours of mock treatment, cells were stained with phalloidin (actin-green) and propidium iodide (nuclei-red). FIG. 4H is a micrograph of preconfluent MDA-MB231 breast cancer cells that have been treated with 5 μl/10 ml Formula I(n). After 24 hours of treatment, cells were stained with phalloidin (actin-green) and propidium iodide (nuclei-red).
Formula I(n) was next analyzed for its ability to induce cytoskeletal reorganization. […]

[8] = test system: MDA-MB231 breast cancer cells; assay: cytoskeletal reorganization and cell density, phalloidin/propidium iodide staining; assay type: cell-based, human; conditions: 24 hours
Procedure: as §1, with “After 24 hours of treatment, cells were stained with phalloidin (actin-green) and propidium iodide (nuclei-red). FIG. 4G is a micrograph of preconfluent MDA-MB231 breast cancer cells that have not been treated with Formula I(n). After 24 hours of mock treatment, cells were stained with phalloidin (actin-green) and propidium iodide (nuclei-red). FIG. 4H is a micrograph of preconfluent MDA-MB231 breast cancer cells that have been treated with 5 μl/10 ml Formula I(n). After 24 hours of treatment, cells were stained with phalloidin (actin-green) and propidium iodide (nuclei-red).” left out

C=CCCCCCCCCCCCc1ccco1 [2-(trideca-12-enyl)furan]
growth of bacteria [1]: inhibited growth
growth of bacteria [2]: inhibited growth

CCCCC/C=C\C/C=C\CCCCCCCc1ccco1 [2-(8Z, 11Z-heptadecadienyl)furan, 2-(8Z,11Z-heptadecadienyl)furan]
activity against silkworm larvae (silkworm larvae, B. mori): no activity

CCCCC/C=C\C/C=C\CCCCCCCc1ccco1 [Formula I(n)]
tumor cell migration [3]: significantly inhibited
tumor cell migration [4]: significantly inhibited
FAK[Tyr576] phosphorylation [5]: concentration dependent decrease
migration of fibroblasts (distance between the migrating lips) ([6]; 5 or 10 μl/10 ml Formula I(n), 12 and 24 hours after scratching, serum free media): reduced migration
migration of fibroblasts (distance between the migrating lips) ([6]; higher Formula I(n) concentration (10 μl/10 ml)): almost completely diminished
filopodia [7]: numerous filopodia
staining at adhesion sites [7]: reduced staining
staining intensity of the actin cytoskeleton [7]: concentration dependent increase
tumor cell morphology ([8]; 5 or 10 μl Formula I(n)): elongated, spindle shaped
cell densities (tumor cell proliferation) ([8]; both Formula I(n) concentrations, both stages of cell confluency): significantly reduced

From patent publication US11833129B2, “Thiophene compound for treatment of exfoliating glaucoma” (Avoscience, LLC, priority 2013, dated 2023)
